One may read the EC50 as the concentration giving half of the maximal effect.

The target in assay [1] is T1, delF508-CFTR (Homo sapiens, UniProt P13569, DEL508-508).
T1 construct: functional activity of the CFTR channel (Chloride ion transport) in patient derived primary human bronchial epithelial cells; host or cells: patient-derived primary human bronchial epithelial cells (HBECs), delF508-CFTR
Briefly: delF508-CFTR functional activity in primary human bronchial epithelial cells (HBECs), Multi-Transepithelial Clamp Circuit (MTECC-24) assay, equivalent short circuit current. Conditions: primary CF HBECs; for MTECC24 CFHBEC-Amax %: relative to reference combination 2 μM 3-(6-(1-(2,2-difluorobenzo[d][1,3]dioxol-5-yl)cyclopropane-1-carboxamido)-3-methylpyridin-2-yl)benzoic acid (24 h) + 0.5 μM N-(2,4-di-tert-butyl-5-hydroxyphenyl)-4-oxo-1,4-dihydroquinoline-3-carboxamide; for EC50: test compound added 24 h before assay, potentiator (S)-3-amino-6-methoxy-N-(3,3,3-trifluoro-2-hydroxy-2-methylpropyl)-5-(trifluoromethyl)picolinamide present at assay, mean of at least two replicates, read-out: MTECC24 CFHBEC-EC50. Format: cell-based. From the text: Measurement of delF508-CFTR Functional Activity in Primary Human Bronchial Epithelial Cells (HBECs) Using Multi-Transepithelial Clamp Circuit (MTECC-24) Assay
This assay measures the functional activity of the CFTR channel (Chloride ion transport) in patient derived primary human bronchial epithelial cells with forskolin activation and in the presence of the CFTR corrector wherein the corrector is a compound of the invention and the potentiator is (S)-3-amino-6-methoxy-N-(3,3,3-trifluoro-2-hydroxy-2-methylpropyl)-5-(trifluoromethyl)picolinamide.
Primary human delF508-CFTR bronchial epithelial cells were purchased from Asterand and cultured according to previously established methods (Fulcher et al. (2005) Methods Mol Med 107: 183-206). Briefly, vendor supplied cells were rapidly defrosted and added to a T175 flask in 50 mL growth media (Lonza BEBM media with Lonza BEGM singlequots). Media was replaced after 24 h and then cells were fed every other day until cells were 80-90% confluent, at which point cells were cryopreserved. These P1 vials were thawed at 37° C. as needed and added to T175 flasks in 50 mL growth media at 5×10^5 cells/flask. Media was replaced after 24 h, and then cells were fed every other day until 80-90% confluent. Cells were lifted with 5 mL Accutase at 37° C. for 5 minutes, centrifuged at 1000 rpms for 5 min (300 g), and resuspended in differentiation media (50% BEBM in DMEM, BEGM singlequots, all trans retinoic acid (5×10·8M)). Cells were then counted and cell suspension was added to collagen coated inserts at 3×10^4 cells/insert in 0.15 mL with 0.5 mL differentiation media on the basolateral side.
Apical and basolateral media were replaced on alternate days, and following day 7 (or when confluent plus 2 days), air liquid interface was established for approximately two weeks by removal of apical media. One day prior to use on the MTECC24 system (EP-Devices, EP Design, Belgium), 0.15 mL of warmed (37° C.) PBS was added to the apical surface of the cultures and returned to humidifier (37° C., 5% CO2 incubator) for 30 min before aspirating the apical surface to remove any mucus.
Compound treatments were then prepared. Compound dilutions, typically a 10 point concentration response with 1 in 3 dilution steps, were made in 100% DMSO before dilution 1 in 1000 into differentiation medium with a final DMSO concentration of 0.1% or 0.2% for the study. Compound containing medium was then transferred into the wells of a 24 well plate at 0.5 mL per well and warmed for 30 min in a 37° C. incubator prior to transferring washed inserts into the compound containing plates. Cells were incubated in compound containing medium (basolateral only) for 24 h prior to measurement in the MTECC24 system.
Following 24 hr treatment, compound dilutions were prepared again, diluted 1 in 1000 into 37° C. assay medium (F-12 Coon's modified, 20 mM HEPES pH7.4 with TRIS Base, No FCS or bicarbonate). Cells which were treated for 24 h with test compound were then transferred into plates containing 0.75 mL compound treatment in assay medium (basolateral) and 0.25 mL of the compound containing assay medium was added to the apical surface. The plates were then transferred to the heated plate compartments of the MTECC24 system for 45 min prior to measurements (this can also be done in a non-CO2 37° C. humidified incubator). Basolateral temperature should not exceed 36.5° C. and apical temperature should be approximately 35.5° C.
Modulators were added sequentially as follows while the MTECC24 instrument recorded the equivalent short circuit current (Ieq)
Prior to dilution into F-12 medium the stocks are as follows: Amiloride stock is 10 mM in H2O
Forskolin Stock is 10 mM in 100% DMSO
(S)-3-amino-6-methoxy-N-(3,3,3-trifluoro-2-hydroxy-2-methylpropyl)-5-(trifluoromethyl)picolinamide is 0.5 mM stock in 100% DMSO INH-172 (4-[[4-Oxo-2-thioxo-3-[3-trifluoromethyl)phenyl]-5-thiazolidinylidene]methyl]benzoic acid) stock is 30 mM in 100% DMSO […]

In assay [2] the target is T2, delF508-CFTR-HRP (Homo sapiens, UniProt P13569, DEL508-508).
T2 construct: expressed in transfected cells
T2 sequence (P13569 with tags, fused parts or gaps DEL508-508): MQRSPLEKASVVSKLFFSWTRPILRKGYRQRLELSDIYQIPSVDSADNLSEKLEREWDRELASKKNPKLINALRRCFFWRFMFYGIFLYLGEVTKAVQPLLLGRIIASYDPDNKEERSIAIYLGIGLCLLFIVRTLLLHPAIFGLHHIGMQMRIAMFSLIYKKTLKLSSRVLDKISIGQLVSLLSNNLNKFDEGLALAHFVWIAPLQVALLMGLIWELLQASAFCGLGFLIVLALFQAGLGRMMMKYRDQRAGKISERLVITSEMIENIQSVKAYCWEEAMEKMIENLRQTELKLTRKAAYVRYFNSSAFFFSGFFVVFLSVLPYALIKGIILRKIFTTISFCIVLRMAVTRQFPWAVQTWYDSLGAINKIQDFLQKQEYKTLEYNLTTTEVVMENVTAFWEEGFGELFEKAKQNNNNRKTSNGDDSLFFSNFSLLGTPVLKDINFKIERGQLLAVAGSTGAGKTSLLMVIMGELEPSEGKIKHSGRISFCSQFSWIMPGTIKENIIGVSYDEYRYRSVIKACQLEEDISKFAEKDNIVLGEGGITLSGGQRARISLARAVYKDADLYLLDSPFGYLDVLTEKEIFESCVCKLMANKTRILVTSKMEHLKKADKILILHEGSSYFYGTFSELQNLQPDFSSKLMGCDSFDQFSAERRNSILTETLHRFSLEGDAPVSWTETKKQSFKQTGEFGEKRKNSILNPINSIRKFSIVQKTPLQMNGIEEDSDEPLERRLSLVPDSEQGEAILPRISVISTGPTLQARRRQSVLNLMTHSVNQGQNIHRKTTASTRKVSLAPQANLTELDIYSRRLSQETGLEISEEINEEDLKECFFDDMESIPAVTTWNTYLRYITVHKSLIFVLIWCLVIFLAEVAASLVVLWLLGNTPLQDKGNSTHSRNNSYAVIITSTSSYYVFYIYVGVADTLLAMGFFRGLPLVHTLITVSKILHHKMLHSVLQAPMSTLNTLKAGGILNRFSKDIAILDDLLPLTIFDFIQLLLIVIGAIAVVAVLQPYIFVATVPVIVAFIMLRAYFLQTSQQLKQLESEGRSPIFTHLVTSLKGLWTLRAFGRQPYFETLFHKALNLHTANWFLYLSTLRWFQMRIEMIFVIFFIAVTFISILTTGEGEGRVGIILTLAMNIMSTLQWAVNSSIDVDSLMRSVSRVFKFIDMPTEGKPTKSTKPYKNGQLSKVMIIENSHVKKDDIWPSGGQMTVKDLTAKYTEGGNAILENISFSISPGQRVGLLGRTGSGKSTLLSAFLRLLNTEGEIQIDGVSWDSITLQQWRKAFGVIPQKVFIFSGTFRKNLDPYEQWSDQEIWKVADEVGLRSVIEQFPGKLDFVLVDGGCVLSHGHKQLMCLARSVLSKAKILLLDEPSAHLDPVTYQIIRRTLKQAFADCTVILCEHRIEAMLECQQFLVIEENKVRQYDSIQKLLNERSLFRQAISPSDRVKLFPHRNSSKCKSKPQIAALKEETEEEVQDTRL
Description: Measurement of delF508-CFTR-HRP surface expression in CFBE41o- cells (HRP luminescence).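 On DelF508-CFTR-HRP Amax %: percent efficacy relative to a reference CFTR corrector compound.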 In kind it is cell-based. The note with it: for Emax: CFBE41o-, read-out: DelF508-CFTR-HRP Amax %; for EC50: mean of at least two replicates. In outline:
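Stably transfected CFBE41o- cells carrying HRP in the fourth extracellular loop of delF508-CFTR, induced with 500 ng/mL doxycycline for 48 h, then compound-treated 24 h at 37° C (10-point, 3-fold, top 10 μM). Surface HRP detected by luminescent substrate; EC50 from logistic fit, triplicates, normalized to lowest-concentration median.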

T1 sequence (P13569 with tags, fused parts or gaps DEL508-508): as above

As for `O=C(NS(=O)(=O)c1cccc(N2CC(O)C2)n1)C1(Oc2cc(Cl)ccc2C2CCC3(CC2)CC3)CC1` [Example 4-12, 1-(5-Chloro-2-(spiro[2.5]octan-6-yl)phenoxy)-N-((6-(3-hydroxyazetidin-1-yl)pyridin-2-yl)sulfonyl)cyclopropane-1-carboxamide], in assay [1], the “MTECC24 CFHBEC-Amax %” value was 82% and the concentration for a half-maximal effect (EC50) was 51 nM. In assay [2], the Emax was 418% and the half-maximal effective concentration (EC50) was determined as 1920 nM.
Consider `Cc1ccc(-c2cccc(C(F)F)c2)c(OC2(C(=O)NS(=O)(=O)c3cccc(N4CC[C@H](O)C4)n3)CC2)c1` [Example 5-9, (S)-1-((3′-(Difluoromethyl)-4-methyl-[1,1′-biphenyl]-2-yl)oxy)-N-], for which, in assay [1], the “MTECC24 CFHBEC-Amax %” value is recorded as 87% and the EC50 came out at 76 nM. Further, in assay [2], the Emax is 298% and the half-maximal effective concentration (EC50) stood at 3110 nM.
The corresponding values for `Cc1ccc(C2CCCCC2)c(OC2(C(=O)NS(=O)(=O)c3cccc(N4CC5(CCN5)C4)n3)CC2)c1` [Example 2-21, N-((6-(1,6-Diazaspiro[3.3]heptan-6-yl)pyridin-2-yl)sulfonyl)-1-(2-cyclohexyl-5-methylphenoxy)cyclopropanecarboxamide] are 99%, 93 nM, 252% and 3390 nM.
For `Cc1ccc(C2CCC(F)(F)CC2)c(OC2(C(=O)NS(=O)(=O)c3cccc(N4CCCC(CO)C4)n3)CC2)c1` (single isomer, unassigned) [Example 3-3-2, 1-(2-(4,4-Difluorocyclohexyl)-5-methylphenoxy)-N-((6-(3-(hydroxymethyl)piperidin-1-yl)pyridin-2-yl)sulfonyl)cyclopropane-1-carboxamide], in assay [1], the “MTECC24 CFHBEC-Amax %” value turned out to be 78% and the EC50 came to 10 nM. Further, in assay [2], the “DelF508-CFTR-HRP Amax %” value is recorded as 614% and the EC50 is 2760 nM.
On to `Cc1ccc(C2CCCCC2)c(OC2(C(=O)NS(=O)(=O)c3cccc(N4CCC(C(=O)O)CC4)n3)CC2)c1` [Example 2-6, 1-(6-(N-(1-(2-cyclohexyl-5-methylphenoxy)cyclopropanecarbonyl)sulfamoyl)pyridin-2-yl)piperidine-4-carboxylic acid], for which, in assay [1], the “MTECC24 CFHBEC-Amax %” value stood at 62% and the EC50 stood at 131 nM. Moreover, in assay [2], the Emax was determined as 34% and the EC50 was found to be 4560 nM.
Take `O=C(NS(=O)(=O)c1cccc(N2CC[C@H](O)C2)n1)C1(Oc2cc(Cl)ccc2N2CCC3(CCCCC3)CC2)CC1` [Example 9-14, (S)-1-(5-Chloro-2-(3-azaspiro[5.5]undecan-3-yl)phenoxy)-N-((6-(3-hydroxypyrrolidin-1-yl)pyridin-2-yl)sulfonyl)cyclopropanecarboxamide]: in assay [1], the “MTECC24 CFHBEC-Amax %” value is 170.7% and the EC50 is 454 nM. Also, in assay [2], the Emax is 279% and the EC50 was 700 nM.
The corresponding values for `Cc1ccc(C2CCCCC2)c(OC2(C(=O)NS(=O)(=O)c3cccc(N4CC(O)C4)n3)CC2)c1` [Example 2-1, 1-(2-Cyclohexyl-5-methylphenoxy)-N-((6-(3-hydroxyazetidin-1-yl)pyridin-2-yl)sulfonyl)cyclopropanecarboxamide] are 97%, 5 nM, 668% and 2360 nM.
The corresponding values for `Cc1ccc(C2CCCCC2)c(OC2(C(=O)NS(=O)(=O)c3cccc(N4CCC(CF)(NC(=O)OC(C)(C)C)CC4)n3)CC2)c1` [Example 2-42, Tert-butyl (1-(6-(N-(1-(2-cyclohexyl-5-methylphenoxy)cyclopropanecarbonyl)sulfamoyl)pyridin-2-yl)-4-(fluoromethyl)piperidin-4-yl)carbamate] are 90%, 6 nM, 284% and 880 nM.
Regarding `CC(C)CCOc1ccc(Cl)cc1OC1(C(=O)NS(=O)(=O)c2cccc(N3CC[C@H](O)C3)n2)CC1` [Example 6-12, (S)-1-(5-chloro-2-(isopentyloxy)phenoxy)-N-((6-(3-hydroxypyrrolidin-1-yl)pyridin-2-yl)sulfonyl)cyclopropanecarboxamide], in assay [1], the “MTECC24 CFHBEC-Amax %” value is 111.4% and the concentration giving a half-maximal response (EC50) was 852 nM. Also, in assay [2], the Emax is 297% and the EC50 came out at 2710 nM.
In the same order, the values of `O=C(NS(=O)(=O)c1cccc(N2CC[C@H](O)C2)n1)C1(Oc2cc(Cl)ccc2N2CC3(C2)CC(F)(F)C3)CC1` [Example 9-22, (S)-1-(5-Chloro-2-(6,6-difluoro-2-azaspiro[3.3]heptan-2-yl)phenoxy)-N-((6-(3-hydroxypyrrolidin-1-yl)pyridin-2-yl)sulfonyl)cyclopropanecarboxamide] are 82.1%, 1760 nM, 139% and 4460 nM.
On to `C[C@@H](CO)Nc1cccc(S(=O)(=O)NC(=O)C2(Oc3cc(F)ccc3C3CCC(F)(F)CC3)CC2)n1` [Example 3-2], for which, in assay [1], the “MTECC24 CFHBEC-Amax %” value was 48% and the 50% effective concentration (EC50) was determined as 371 nM. Further, in assay [2], the Emax came out at 172% and the EC50 was determined as 4420 nM.
With `O=C(NS(=O)(=O)c1cccc(N2CC[C@H](O)C2)n1)C1(Oc2cc(Cl)ccc2N2CCC(C(F)(F)F)CC2)CC1` [Example 9-16, (S)-1-(5-Chloro-2-(4-(trifluoromethyl)piperidin-1-yl)phenoxy)-N-((6-(3-hydroxypyrrolidin-1-yl)pyridin-2-yl)sulfonyl)cyclopropanecarboxamide], in assay [1], the “MTECC24 CFHBEC-Amax %” value is 138.2% and the EC50 came out at 865 nM. In assay [2], the Emax is 317% and the midpoint of the response, the EC50, lay at 2200 nM.
For `Cc1ccc(CC(C)C)c(OC2(C(=O)NS(=O)(=O)c3cccc(NC[C@@H](C)O)n3)CC2)c1` [Example 4-10, (R)-N-((6-((2-Hydroxypropyl)amino)pyridin-2-yl)sulfonyl)-1-(2-isobutyl-5-methylphenoxy)cyclopropane-1-carboxamide], in assay [1], the “MTECC24 CFHBEC-Amax %” value amounted to 71% and the EC50 was 12 nM. Also, in assay [2], the Emax turned out to be 374% and the EC50 was 3280 nM.
`Cc1ccc(C2CCCCC2)c(OC2(C(=O)NS(=O)(=O)c3nc(N)ccc3F)CC2)c1` [Example 1-7, N-((6-Amino-3-fluoropyridin-2-yl)sulfony)-1-(2-cyclohexyl-5-methylphenoxy)cyclopropane-1-carboxamide]: in assay [1], the “MTECC24 CFHBEC-Amax %” value is on record as 54% and the EC50 is 40 nM. In addition, in assay [2], the Emax is 109% and the concentration for a half-maximal effect (EC50) was 2830 nM.

These data come from patent US20220033407A1, “N-(pyridin-2-ylsulfonyl)cyclopropanecarboxamide Derivatives and their Use in the Treatment of Disease” (NOVARTIS AG, priority 2018, published 2022).
